From patent US20240277795A1, “INHIBITORS OF CYSTEINE PROTEASES AND METHODS OF USE THEREOF” (Pardes Biosciences, Inc., priority 2021, published 2024)
Read-outs that look alike come from different tables or passages of the source.

What was measured:
OC43 Mpro = OC43 Mpro (Human coronavirus OC43, UniProt P0C6X6); experiment: OC43 Mpro enzymatic assay; type: biochemical, HCoV OC43
Protocol: (§1) Compounds were assayed using standard methods to assess compound activity and IC50. As an exemplary for assessment of the SARS-COV2 Mpro, the C-His6-tagged Mpro (NC_045512) was cloned, expressed in E. coli and purified. The assay buffer contained 20 mM of Tris-HCl (pH 7.3), 100 mM of NaCl, 1 mM of EDTA, 5 mM of TCEP and 0.1% BSA. The final concentrations of the Mpro protein and substrate were 25 nM and 25 μM, respectively, in the Mpro enzymatic assay. The Km of the Mpro substrate for the protease was 13.5 μM.
(§2) The compounds were added to an assay plate. For 100% inhibition control (HPE, hundred percent effect), 1 μM GC376 was added. For no inhibition control (ZPE, zero percent effect), no compound was added.
(§3) IC50 values of compounds were calculated with the GraphPad Prism software using the nonlinear regression model of log(inhibitor) vs. response—Variable slope (four parameters). The inhibition activity was calculated using the formula below, IC50 values is calculated using the Inhibition % data.
(§4) [formula] • #HEP: Hundred percent effect controls. Containing substrate+enzyme+1 μM GC376. • ZPE: Zero percent effective controls. Containing enzyme+substrate, no compound. • Sample: Compound activity testing wells. Containing compound+enzyme+substrate. • BG: Compound background control wells. Containing compound+substrate, no enzyme.

229E Mpro = 229E Mpro (Human coronavirus 229E, UniProt P0C6X1); experiment: 229E Mpro enzymatic assay; type: biochemical, HCoV 229E
Chain of 229E Mpro (P0C6X1 2966-3267): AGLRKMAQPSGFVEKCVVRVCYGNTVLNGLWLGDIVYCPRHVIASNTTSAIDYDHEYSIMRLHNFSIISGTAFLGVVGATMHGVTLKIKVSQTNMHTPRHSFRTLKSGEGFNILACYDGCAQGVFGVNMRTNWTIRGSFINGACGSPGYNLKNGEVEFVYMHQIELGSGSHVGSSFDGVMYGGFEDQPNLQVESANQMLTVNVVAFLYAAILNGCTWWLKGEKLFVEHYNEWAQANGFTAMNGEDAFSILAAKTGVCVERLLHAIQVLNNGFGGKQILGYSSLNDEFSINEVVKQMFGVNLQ
Protocol: as §1, §2, §3, §4

SARS-COV2 Mpro = SARS-COV2 Mpro (Severe acute respiratory syndrome coronavirus 2, UniProt P0DTD1); experiment: COVID-19 (nCoV-2019, SARS-CoV2) Mpro enzymatic assay; type: biochemical; conditions: read-out: COVID-19 Mpro IC50
Protocol: as §1, with “assay.” for “assay. The Km of the Mpro substrate for the protease was 13.5 μM.”
The compounds were added to an assay plate. For 100% inhibition control (HPE, hundred percent effect), 1 μM GC376 was added.
as §3
[formula] • #HEP: Hundred percent effect controls. […] Containing enzyme+substrate, no compound. • Sample: Compound activity testing wells. Containing compound+enzyme+substrate. • BG: Compound background control wells. Containing compound+substrate, no enzyme.

Chain of OC43 Mpro (P0C6X6 3247-3549): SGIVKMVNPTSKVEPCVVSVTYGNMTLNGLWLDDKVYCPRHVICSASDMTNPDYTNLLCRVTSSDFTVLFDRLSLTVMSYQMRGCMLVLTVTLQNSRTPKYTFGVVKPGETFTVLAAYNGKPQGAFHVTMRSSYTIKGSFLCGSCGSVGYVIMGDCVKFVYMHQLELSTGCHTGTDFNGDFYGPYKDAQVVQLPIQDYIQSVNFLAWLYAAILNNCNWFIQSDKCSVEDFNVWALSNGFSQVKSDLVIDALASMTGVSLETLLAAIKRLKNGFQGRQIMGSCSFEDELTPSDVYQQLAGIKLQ

Row | Structure (SMILES) | IC50 (OC43 Mpro; Table 3) [nM] | IC50 (229E Mpro; Table 3) [nM] | IC50 (SARS-COV2 Mpro; Table 3) [nM] | IC50 (OC43 Mpro; Table 5) [nM] | IC50 (229E Mpro; Table 5) [nM] | IC50 (SARS-COV2 Mpro; Table 5) [nM]
1 | C[C@@H](OC1(C)CCC1)[C@H](NC(=O)C(F)(F)F)C(=O)N1C[C@H]2[C@@H]([C@H]1C(=O)N[C@H](C#N)C[C@@H]1CC(C)(C)NC1=O)C2(C)C [Compound 308, (1R,2S,5S)—N-[(1S)-1-cyano-2-[(3R)-5,5-dimethyl-2-oxo-pyrrolidin-3-yl]ethyl]-6,6-dimethyl-3-[(2S,3R)-3-(1-methylcyclobutoxy)-2-[(2,2,2-trifluoroacetyl)amino]butanoyl]-3-azabicyclo[3.1.0]hexane-2-carboxamide] | < 2000 | < 2000 | < 2000 | – | – | –
2 | C[C@@H](OCC(F)(F)F)[C@H](NC(=O)C(F)(F)F)C(=O)N1C[C@H]2[C@@H]([C@H]1C(=O)N[C@H](C#N)C[C@@H]1CC(C)(C)NC1=O)C2(C)C [Compound 312, (1R,2S,5S)—N-[(1S)-1-cyano-2-[(3R)-5,5-dimethyl-2-oxo-pyrrolidin-3-yl]ethyl]-6,6-dimethyl-3-[(2S,3R)-2-[(2,2,2-trifluoroacetyl)amino]-3-(2,2,2-trifluoroethoxy)butanoyl]-3-azabicyclo[3.1.0]hexane-2-carboxamide] | – | – | – | < 2000 | < 2000 | < 2000
3 | C[C@@H](OC1(C)CCC1)[C@H](NC(=O)C(F)(F)F)C(=O)N1C[C@H]2[C@@H]([C@H]1C(=O)N[C@H](C#N)C[C@@H]1CC3(CC3)NC1=O)C2(C)C [Compound 314, (1R,2S,5S)—N-[(1S)-1-cyan-2-[(6R)-5-oxo-4-azaspiro[2.4]heptan-6-yl]ethyl]-6,6-dimethyl-3-[(2S,3R)-3-(1-methylcyclobutoxy)-2-[(2,2,2-trifluoroacetyl)amino]butanoyl]-3-azabicyclo[3.1.0]hexane-2-carboxamide] | – | – | – | < 2000 | < 2000 | < 2000
4 | C[C@@H](OC1(C)CC1)[C@H](NC(=O)C(F)(F)F)C(=O)N1C[C@H]2[C@@H]([C@H]1C(=O)N[C@H](C#N)C[C@@H]1CC3(CC3)NC1=O)C2(C)C [Compound 315, (1R,2S,5S)—N-[(1S)-1-cyan-2-[(6R)-5-oxo-4-azaspiro[2.4]heptan-6-yl]ethyl]-6,6-dimethyl-3-[(2S,3R)-3-(1-methylcyclopropoxy)-2-[(2,2,2-trifluoroacetyl)amino]butanoyl]-3-azabicyclo[3.1.0]hexane-2-carboxamide] | < 2000 | < 2000 | < 2000 | – | – | –
5 | CC1(C)C[C@@H](C[C@@H](C#N)NC(=O)[C@@H]2[C@@H]3[C@H](CN2C(=O)C2(NC(=O)C(F)(F)F)CCC2)C3(C)C)C(=O)N1 [Compound 316, (1R,2S,5S)—N-[(1S)-1-cyano-2-[(3R)-5,5-dimethyl-2-oxo-pyrrolidin-3-yl]ethyl]-6,6-dimethyl-3-[1-[(2,2,2-trifluoroacetyl)amino]cyclobutanecarbonyl]-3-azabicyclo[3.1.0]hexane-2-carboxamide] | 10000 to 30000 | > 30000 | < 2000 | – | – | –
6 | C[C@@H](OCC(F)(F)F)[C@H](NC(=O)C(F)(F)F)C(=O)N1C[C@H]2[C@@H]([C@H]1C(=O)N[C@H](C#N)C[C@@H]1CC3(CC3)NC1=O)C2(C)C [Compound 319, (1R,2S,5S)—N-[(1S)-1-cyan-2-[(6R)-5-oxo-4-azaspiro[2.4]heptan-6-yl]ethyl]-6,6-dimethyl-3-[(2S,3R)-2-[(2,2,2-trifluoroacetyl)amino]-3-(2,2,2-trifluoroethoxy)butanoyl]-3-azabicyclo[3.1.0]hexane-2-carboxamide] | – | – | – | < 2000 | < 2000 | < 2000
7 | C[C@@H](OC1(C2CC2)CC1)[C@H](NC(=O)C(F)(F)F)C(=O)N1C[C@H]2[C@@H]([C@H]1C(=O)N[C@H](C#N)C[C@@H]1CC(C)(C)NC1=O)C2(C)C [Compound 324, (1R,2S,5S)—N-[(1S)-1-cyano-2-[(3R)-5,5-dimethyl-2-oxo-pyrrolidin-3-yl]ethyl]-3-[(2S,3R)-3-(1-cyclopropylcyclopropoxy)-2-[(2,2,2-trifluoroacetyl)amino]butanoyl]-6,6-dimethyl-3-azabicyclo[3.1.0]hexane-2-carboxamide] | < 2000 | < 2000 | < 2000 | – | – | –
8 | C[C@@H](OC1CC1)[C@H](NC(=O)C(F)(F)F)C(=O)N1C[C@H]2[C@@H]([C@H]1C(=O)N[C@H](C#N)C[C@@H]1CC3(CC3)NC1=O)C2(C)C [Compound 326, (1R,2S,5S)—N-[(1S)-1-cyan-2-[(6R)-5-oxo-4-azaspiro[2.4]heptan-6-yl]ethyl]-3-[(2S,3R)-3-(cyclopropoxy)-2-[(2,2,2-trifluoroacetyl)amino]butanoyl]-6,6-dimethyl-3-azabicyclo[3.1.0]hexane-2-carboxamide] | – | – | – | < 2000 | < 2000 | < 2000
9 | C[C@@H](OC1CCC1)[C@H](NC(=O)C(F)(F)F)C(=O)N1C[C@H]2[C@@H]([C@H]1C(=O)N[C@H](C#N)C[C@@H]1CC3(CC3)NC1=O)C2(C)C [Compound 327, (1R,2S,5S)—N-[(1S)-1-cyan-2-[(6R)-5-oxo-4-azaspiro[2.4]heptan-6-yl]ethyl]-3-[(2S,3R)-3-(cyclobutoxy)-2-[(2,2,2-trifluoroacetyl)amino]butanoyl]-6,6-dimethyl-3-azabicyclo[3.1.0]hexane-2-carboxamide] | – | – | – | < 2000 | < 2000 | < 2000
10 | CC1(C)C[C@@H](C[C@@H](C#N)NC(=O)[C@@H]2[C@@H]3[C@H](CN2C(=O)[C@@H](NC(=O)C(F)(F)F)C2CCC(C)(C)O2)C3(C)C)C(=O)N1 (stereo partly drawn) [Compound 328] | < 2000 | < 2000 | < 2000 | – | – | –
11 | C[C@@H](OC1CC(F)(F)C1)[C@H](NC(=O)C(F)(F)F)C(=O)N1C[C@H]2[C@@H]([C@H]1C(=O)N[C@H](C#N)C[C@@H]1CC(C)(C)NC1=O)C2(C)C [Compound 330, (1R,2S,5S)—N-[(1S)-1-cyano-2-[(3R)-5,5-dimethyl-2-oxo-pyrrolidin-3-yl]ethyl]-3-[(2S,3R)-3-(3,3-difluorocyclobutoxy)-2-[(2,2,2-trifluoroacetyl)amino]butanoyl]-6,6-dimethyl-3-azabicyclo[3.1.0]hexane-2-carboxamide] | < 2000 | < 2000 | < 2000 | – | – | –
12 | C[C@@H](OC1(C2CC2)CC1)[C@H](NC(=O)C(F)(F)F)C(=O)N1C[C@H]2[C@@H]([C@H]1C(=O)N[C@H](C#N)C[C@@H]1CC3(CC3)NC1=O)C2(C)C [Compound 331, (1R,2S,5S)—N-[(1S)-1-cyano-2-[(6R)-5-oxo-4-azaspiro[2.4]heptan-6-yl]ethyl]-3-[(2S,3R)-3-(1-cyclopropylcyclopropoxy)-2-[(2,2,2-trifluoroacetyl)amino]butanoyl]-6,6-dimethyl-3-azabicyclo[3.1.0]hexane-2-carboxamide] | < 2000 | < 2000 | < 2000 | – | – | –
13 | C[C@@H](OC1(C#N)CC1)[C@H](NC(=O)C(F)(F)F)C(=O)N1C[C@H]2[C@@H]([C@H]1C(=O)N[C@H](C#N)C[C@@H]1CC(C)(C)NC1=O)C2(C)C [Compound 334, (1R,2S,5S)-3-[(2S,3R)-3-(1-cyanocyclopropoxy)-2-[(2,2,2-trifluoroacetyl)amino]butanoyl]-N-[(1S)-1-cyano-2-[(3R)-5,5-dimethyl-2-oxo-pyrrolidin-3-yl]ethyl]-6,6-dimethyl-3-azabicyclo[3.1.0]hexane-2-carboxamide] | – | – | – | < 2000 | < 2000 | < 2000
14 | C[C@@H](OC1(C#N)CC1)[C@H](NC(=O)C(F)(F)F)C(=O)N1C[C@H]2[C@@H]([C@H]1C(=O)N[C@H](C#N)C[C@@H]1CC3(CC3)NC1=O)C2(C)C [Compound 335] | – | – | – | < 2000 | < 2000 | < 2000
15 | C[C@@H](OC(C)(C)C(F)(F)F)[C@H](NC(=O)C(F)(F)F)C(=O)N1C[C@H]2[C@@H]([C@H]1C(=O)N[C@H](C#N)C[C@@H]1CC(C)(C)NC1=O)C2(C)C [Compound 357, (1R,2S,5S)—N-[(1S)-1-cyano-2-[(3R)-5,5-dimethyl-2-oxo-pyrrolidin-3-yl]ethyl]-6,6-dimethyl-3-[(2S,3R)-2-[(2,2,2-trifluoroacetyl)amino]-3-(2,2,2-trifluoro-1,1-dimethyl-ethoxy)butanoyl]-3-azabicyclo[3.1.0]hexane-2-carboxamide] | – | – | – | < 2000 | < 2000 | < 2000
